Experimental findings from patent US20080167314A1, “Condensed Imidazole Compound And Use Thereof” (priority 2004, published 2008) are described below.

Compound `COc1ccc(C(=O)Nc2cc(-c3c(-c4ccc(F)c(C)c4)nc4cccnn34)ccn2)c(C)c1` [Example 42-18, N-{4-[2-(4-fluoro-3-methylphenyl)imidazo[1,2-b]pyridazin-3-yl]pyridin-2-yl}-4-methoxy-2-methylbenzamide] came in with a melting point of 200 to 202 °C.
To `Cc1cc(-c2nc3cccnn3c2-c2ccnc(NC(=O)c3ccc4ccccc4c3)c2)ccc1F` [Example 42-19, N-{4-[2-(4-fluoro-3-methylphenyl)imidazo[1,2-b]pyridazin-3-yl]pyridin-2-yl}-2-naphthamide] belongs 187 to 188 °C.
To `Cc1cc(-c2nc3cccnn3c2-c2ccnc(NC(=O)c3cccc4ccccc34)c2)ccc1F` [Example 42-20, N-{4-[2-(4-fluoro-3-methylphenyl)imidazo[1,2-b]pyridazin-3-yl]pyridin-2-yl}-1-naphthamide] belongs 252 to 253 °C; to `Cc1cc(-c2nc3cccnn3c2-c2ccnc(NC(=O)c3ccc(Cl)nc3)c2)ccc1F` [Example 42-24, 6-chloro-N-{4-[2-(4-fluoro-3-methylphenyl)imidazo[1,2-b]pyridazin-3-yl]pyridin-2-yl}nicotinamide], 225 to 226 °C; to `Cc1cc(-c2nc3cccnn3c2-c2ccnc(NC(=O)c3ccnc(Cl)c3)c2)ccc1F` [Example 42-25, 2-chloro-N-{4-[2-(4-fluoro-3-methylphenyl)imidazo[1,2-b]pyridazin-3-yl]pyridin-2-yl}isonicotinamide], 224 to 225 °C.
Turning to `Cc1cc(-c2nc3cccnn3c2-c2ccnc(NC(=O)c3ccc(C(F)(F)F)nc3)c2)ccc1F` [Example 42-26, N-{4-[2-(4-fluoro-3-methylphenyl)imidazo[1,2-b]pyridazin-3-yl]pyridin-2-yl}-6-(trifluoromethyl)nicotinamide], the melting point was 225 to 226 °C.
Under `Cc1cc(-c2nc3cccnn3c2-c2ccnc(NC(=O)c3cncc(Cl)c3)c2)ccc1F` [Example 42-28, 5-chloro-N-{4-[2-(4-fluoro-3-methylphenyl)imidazo[1,2-b]pyridazin-3-yl]pyridin-2-yl}nicotinamide] stands 252 to 254 °C; under `Cc1cc(-c2nc3cccnn3c2-c2ccnc(NC(=O)c3cccnc3C)c2)ccc1F` [Example 42-29, N-{4-[2-(4-fluoro-3-methylphenyl)imidazo[1,2-b]pyridazin-3-yl]pyridin-2-yl}-2-methylnicotinamide], 258 to 259 °C; under `Cc1cncc(C(=O)Nc2cc(-c3c(-c4ccc(F)c(C)c4)nc4cccnn34)ccn2)c1` [Example 42-30, N-{4-[2-(4-fluoro-3-methylphenyl)imidazo[1,2-b]pyridazin-3-yl]pyridin-2-yl}-5-methylnicotinamide], 238 to 240 °C.
To `Cc1cc(-c2nc3cccnn3c2-c2ccnc(NC(=O)c3ccsc3)c2)ccc1F` [Example 42-32, N-{4-[2-(4-fluoro-3-methylphenyl)imidazo[1,2-b]pyridazin-3-yl]pyridin-2-yl}thiophene-3-carboxamide] belongs 217 to 218 °C.
Under `Cc1cc(-c2nc3cccnn3c2-c2ccnc(NC(=O)c3ccoc3)c2)ccc1F` [Example 42-33, N-{4-[2-(4-fluoro-3-methylphenyl)imidazo[1,2-b]pyridazin-3-yl]pyridin-2-yl}-3-furamide] stands 199 to 200 °C.
`Cc1cc(-c2nc3cccnn3c2-c2ccnc(NC(=O)c3cnccn3)c2)ccc1F` [Example 42-34, N-{4-[2-(4-fluoro-3-methylphenyl)imidazo[1,2-b]pyridazin-3-yl]pyridin-2-yl}pyrazine-2-carboxamide] gave a melting point of 229 to 230 °C.
Under `Cc1ccc(C(=O)Nc2nccc(-c3c(-c4cccc(C)c4)nc4cccnn34)n2)cc1` [Example 44-1, 4-methyl-N-{4-[2-(3-methylphenyl)imidazo[1,2-b]pyridazin-3-yl]pyrimidin-2-yl}benzamide] stands 211 to 212 °C; under `COc1ccc(C(=O)Nc2nccc(-c3c(-c4cccc(C)c4)nc4cccnn34)n2)cc1` [Example 44-2, 4-methoxy-N-{4-[2-(3-methylphenyl)imidazo[1,2-b]pyridazin-3-yl]pyrimidin-2-yl}benzamide], 193 to 194 °C; under `Cc1cccc(-c2nc3cccnn3c2-c2ccnc(NC(=O)c3ccncc3)n2)c1` [Example 44-3, N-{4-[2-(3-methylphenyl)imidazo[1,2-b]pyridazin-3-yl]pyrimidin-2-yl}isonicotinamide], 181 to 182 °C.
Under `COc1ccc(C(=O)Nc2cc(-c3c(-c4cccc(C)c4)nc4ccc(N(C)C)nn34)ccn2)cc1` [Example 45-1, N-{4-[6-(dimethylamino)-2-(3-methylphenyl)imidazo[1,2-b]pyridazin-3-yl]pyridin-2-yl}-4-methoxybenzamide] stands 193 to 194 °C; under `COc1ccc(C(=O)Nc2cc(-c3c(-c4ccc(F)c(C)c4)nc4ccc(N(C)C)nn34)ccn2)cc1` [Example 45-2, N-{4-[6-(dimethylamino)-2-(4-fluoro-3-methylphenyl)imidazo[1,2-b]pyridazin-3-yl]pyridin-2-yl}-4-methoxybenzamide], 224 to 225 °C; under `CNc1ccc2nc(-c3ccc(F)c(C)c3)c(-c3ccnc(NC(=O)c4ccc(OC)cc4)c3)n2n1` [Example 46, N-{4-[2-(4-Fluoro-3-methylphenyl)-6-(methylamino)imidazo[1,2-b]pyridazin-3-yl]pyridin-2-yl}-4-methoxybenzamide], 178 to 180 °C.
On to `CNC(=O)Nc1cc(-c2c(-c3ccc(F)c(C)c3)nc3cccnn23)ccn1` [Example 47-1, N-{4-[2-(4-fluoro-3-methylphenyl)imidazo[1,2-b]pyridazin-3-yl]pyridin-2-yl}-N′-methylurea], for which the melting point was in the range of 225 to 227 °C.
On to `Cc1cc(-c2nc3cccnn3c2-c2ccnc(NC(=O)NC(C)(C)C)c2)ccc1F` [Example 47-2, N-(tert-butyl)-N′-{4-[2-(4-fluoro-3-methylphenyl)imidazo[1,2-b]pyridazin-3-yl]pyridin-2-yl}urea], for which the melting point is 234 to 235 °C.
Under `CCC(C)NC(=O)Nc1cc(-c2c(-c3ccc(F)c(C)c3)nc3cccnn23)ccn1` (stereo not drawn) [Example 47-3, N-(sec-butyl)-N′-{4-[2-(4-fluoro-3-methylphenyl)imidazo[1,2-b]pyridazin-3-yl]pyridin-2-yl}urea] stands 196 to 197 °C; under `Cc1cc(-c2nc3cccnn3c2-c2ccnc(NC(=O)NCCCCl)c2)ccc1F` [Example 47-4, N-(3-chloropropyl)-N′-{4-[2-(4-fluoro-3-methylphenyl)imidazo[1,2-b]pyridazin-3-yl]pyridin-2-yl}urea], 170 to 171 °C; under `Cc1cc(-c2nc3cccnn3c2-c2ccnc(NC(=O)Nc3ccc(C#N)cc3)c2)ccc1F` [Example 47-5, N-(4-cyanophenyl)-N′-{4-[2-(4-fluoro-3-methylphenyl)imidazo[1,2-b]pyridazin-3-yl]pyridin-2-yl}urea], 204 to 206 °C.
Under `Cc1cc(-c2nc3cccnn3c2-c2ccnc(NC(=O)Nc3ccsc3)c2)ccc1F` [Example 47-6, N-{4-[2-(4-fluoro-3-methylphenyl)imidazo[1,2-b]pyridazin-3-yl]pyridin-2-yl}-N′-3-thienylurea] stands 234 to 235 °C.
